# “Also recorded” adds a separate entry of the source.
# Legend:
# HEK293T cells = assay: total Hcys in HEK293T cells (ELISA); type: cell-based; settings: 5 or 10 μM, 12 h
# Experimental: Fig. 3 The effect of CH004 on the activity of endogenous hCBS in cells. a CH004 dose-dependently elevates the levels of Hcys in HepG2 and HEK293T cells. HepG2 cells or HEK293T cells were incubated with indicated CH004 or DMSO (control) for 12 h. The amount of total Hcys in cells was measured by ELISA using Axis® Homocysteine EIA kit (IBL, AX51301) (“Materials and Methods” section). […] HepG2 cells were treated with indicated DMSO, CH004 or HA for 8 h before the staining with AzMC probe. The amount of the H2S (blue) was quantified and is shown in (c). Bars, 50 μm. Control (CTR), DMSO group (100%). A representative fluorescence image from three independent experiments is shown. Means ± SDS (n = 3). d CH004 elevates Hcys in the peripheral blood of rats. The total Hcys of the blood samples collected from the anesthetized rats at the 75 min time point (Materials and Methods) were quantified by ELISA (see above). Means ± SDS (n = 6).
# HepG2 or HEK293T cells were seeded in poly-D-Lys-coated 6-well plates at a density of ∼ 5 × 10^5 cells per well for one day, treated with DMSO or various concentrations of compounds for another 12 h before the collection by scraping or trypsinization. […]
# [1] = system: HEK293T cells expressing CBS Q222A mutant; assay: cell viability of HEK293T stable line expressing CBS Q222A; type: cell-based; settings: 10 µM, 24 h
# Experimental: (§1) Figure S15. The mode of actions for CH004 in cells. […] Indicated HEK293T stable cell lines were treated with CH004 at a concentration of 10 µM for 24 h, and the cell viability was then measured using the CellTiter96® Aqueous One Solution Cell Proliferation Assay (Promega). Means ± SDs (n=3). (B-C) CH004 or erastin triggers ferroptosis in mouse embryonic fibroblasts (MEF). WT MEF cells were treated with CH004 or erastin at indicated concentrations in the presence or the absence of 500 µM DFO for 24 h before measuring the lipid ROS with 2 μM BODIPY® 581/591 C11 (Materials and methods). […] Erastin at micromolar concentrations were incubated with HepG2 cells for 24 h before measuring the lipid ROS (see above and Materials and methods). […] Means ± SDs (n=3). […] CH004 or erastin at a concentration of 20 µM was incubated with HepG2 cells for 48 h or 72 h in the presence or the absence of 100 µM DFO. The cell viability was accordingly quantified using the CellTiter96® Aqueous One Solution Cell Proliferation Assay (Promega) and the results were shown as percentages of DMSO (control, 100%). Means ± SDs (n=3). All the experiments were independently repeated at least twice and one representative result is present. Table S1 The inhibitory effects of CH004 on purified hCBS, hCSE and hDDC.
# HepG2 cells = assay: lipid ROS (BODIPY 581/591 C11, flow cytometry); type: cell-based, human; settings: 24 h, HepG2
# Experimental: To detect lipid peroxidation upon treatment with CH004, HepG2 cells or mouse embryonic fibroblasts (MEF) were seeded in 12-well plates with ~ 1.8 × 10^5 cells per well for 24 h. After treatment with the inhibitor for another 24 h, cells were stained with BODIPY® 581/591 C11 (Invitrogen) for 1 h at a final concentration of 2 μM at 37 °C[57]. The cells were then resuspended in an appropriate amount of PBS after being washed once with PBS. Lipid peroxidation, i.e., lipid ROS, was analyzed by detection of the fluorescence using an LSR Fortessa flow cytometer. The data were recorded at 530/30 nm (green fluorescent) and 670/30 nm (red fluorescent) wavelengths after excitation at 488 nm. A minimum of 20000 events was used for the analysis. All the experiments were independently repeated twice in triplicate.
# as §1
# [2] = system: H22 mouse liver tumor cells in ICR mice; settings: 10 mg/kg/day i.v.
# Experimental: Fig. 7 CH004 suppresses tumor growth in vivo. a–c CH004 reduces the growth rate of tumors in liver tumor xenograft mice model. Mice bearing liver tumor xenografts were treated with CH004 (10 mg/kg/d), cyclophophamide (CTX, 20 mg/kg/d) or PBS (Vehicle) for 21 days. The tumor volumes were measured every two days during day 6 to day 22 and the data was presented in a (n = 8). […] Mice body weight was measured along with the measurement of tumor volume (n = 8). Means ± SDS. Statistical analyses were performed on the raw data by one-way (c) or two-way ANOVA (a) with Bonferroni post-tests. The significance of the CH004-treated group compared to Vehicle was indicated with $ (a), whereas the comparison of the CTX group to Vehicle was with # (a). $, # or ***p < 0.001
# The in vivo effect of CH004 on tumor growth was evaluated in a xenograft mice model of liver cancer. The experiment was independently performed by Jiangsu KeyGEN BioTECH Co. LTD (Jiangsu, China) and followed the standard procedures that were established and approved by the local Animal Care and Use Committee. Briefly, H22 mouse liver tumor cells were intraperitoneal injected into female ICR mice (SLAC Laboratory Animal Co. Ltd, Shanghai, China). 8 days later, mice with distended abdomen were killed, and the ascites was collected, washed and resuspended with PBS. 0.1 ml cell suspension with a density of 1 × 10^7/ml was subcutaneously injected into the right dorsum of ICR female mice (~20 g). The mice bearing H22 tumor cells were then randomized into groups (n = 8) on the following day after the implantation. Then, the mice were injected via a tail vein (i.v.) with PBS, CH004 (10 mg/kg) or cyclophosphamide (CTX, a known anticancer drug; 20 mg/kg) once per day and for 21 days. Tumor sizes were measured every 2 days starting from the day 6 using a caliper, and tumor volume was calculated using the formula V = length × width^2 × π / 6. The body weights of mice were recorded under the same conditions. The mice were sacrificed on day 22, and the tumors were taken out and weighted.
# hCBS Y223F = target: T1, hCBS Y223F (Homo sapiens, UniProt P35520, Y223F); assay: purified hCBS mutant enzyme assay; type: biochemical
# T1 construct: hCBS-413 (a C-terminal truncated hCBS 1–413); GST (N); made in house; host or cells: E. coli BL21
# T1 sequence (P35520 1-413 Y223F): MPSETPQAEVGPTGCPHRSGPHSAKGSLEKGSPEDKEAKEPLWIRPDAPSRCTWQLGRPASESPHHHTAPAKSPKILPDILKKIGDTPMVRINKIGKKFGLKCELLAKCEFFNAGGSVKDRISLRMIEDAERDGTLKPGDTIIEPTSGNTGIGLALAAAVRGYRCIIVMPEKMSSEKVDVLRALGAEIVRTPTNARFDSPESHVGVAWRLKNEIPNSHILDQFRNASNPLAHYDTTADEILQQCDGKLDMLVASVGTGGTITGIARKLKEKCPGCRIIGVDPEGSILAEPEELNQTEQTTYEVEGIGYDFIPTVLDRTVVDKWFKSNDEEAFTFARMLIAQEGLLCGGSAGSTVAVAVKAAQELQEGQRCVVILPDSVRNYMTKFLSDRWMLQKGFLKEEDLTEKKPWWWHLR
# Experimental: (§2) The IC50 values of CH004 for hCBS-413, hCBS-413 mutants, hCBS-FL, hCSE or hDDC were determined according to the standard assay conditions otherwise indicated.
# (§3) Table S2. Inhibitory effects of CH004 on hCBS WT and mutants.
# hCBS S147A = target: T2, hCBS S147A (Homo sapiens, UniProt P35520, S147A); assay: purified hCBS mutant enzyme assay; type: biochemical
# T2 construct: hCBS-413 (a C-terminal truncated hCBS 1–413); GST (N); made in house; host or cells: E. coli BL21
# T2 sequence (P35520 1-413 S147A): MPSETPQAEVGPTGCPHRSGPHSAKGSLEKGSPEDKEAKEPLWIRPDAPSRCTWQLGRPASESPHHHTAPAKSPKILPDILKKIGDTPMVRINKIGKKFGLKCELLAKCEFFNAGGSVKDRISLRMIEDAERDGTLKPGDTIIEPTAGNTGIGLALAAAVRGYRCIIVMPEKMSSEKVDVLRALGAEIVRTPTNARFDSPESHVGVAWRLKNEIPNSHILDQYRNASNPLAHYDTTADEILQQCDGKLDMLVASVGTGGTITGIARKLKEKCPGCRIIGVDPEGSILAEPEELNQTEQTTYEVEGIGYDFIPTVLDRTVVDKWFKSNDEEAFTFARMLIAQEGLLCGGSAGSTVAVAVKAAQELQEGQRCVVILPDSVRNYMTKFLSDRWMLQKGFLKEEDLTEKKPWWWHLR
# Experimental: as §2, §3
# [3] = 150 nM CBS, 4 mM Hcys, 4 mM Cys, Tris-HCl pH 8.6
compound,measurement,setting,value
"Cn1nc(Cc2ccccc2)nc2c(=O)n(C)c(=O)nc1-2 [CH004, 3-benzyl-1,6-dimethylpyrimido[5,4-e][1,2,4]triazine-5,7(1H,6H)-dione]",increase of Hcys,HEK293T cells,~ 2 fold
same,cell death triggered by CH004 in cells expressing CH004-insensitive CBS Q222A,[1],partially rescues
same,increase of lipid ROS,HepG2 cells; 10 μM,~ 250%
same,"lipid peroxidation (lipid ROS), dose dependence",HepG2 cells,dose-dependently increased
same,reduction of tumor volume or weight,[2]; 21-day treatment,more than half
same,effect on total body weight,[2]; 21 days,did not substantially affect; also recorded: hardly affects
same,growth rate of tumor,"[2]; since day 12 of treatment, p < 0.001",significantly reduced
same,"IC50 fold to WT, Y223F",hCBS Y223F,3.5
same,IC50,hCBS Y223F; [3],4.2 ± 1 µM
same,"IC50 fold to WT, S147A",hCBS S147A,4.9
same,IC50,hCBS S147A; [3],5.9 ± 0.8 µM
